Assay results as given in the CheMixHub viscosity set.
Several values for one entry are separate records, joined by “and”; a condition that tells them apart may be missing. Equal values may be shown once. ± gives the uncertainty stated by the source.

For `C1CCCCC1`, the viscosity (293.15 K, 101 kPa) was 0.972 ± 0.019 mPa·s, the viscosity (293.15 K, 101.3 kPa) was 0.986 ± 0.007 mPa·s and the viscosity (298 K, 101 kPa) was 0.99 ± 0.02 mPa·s. The viscosity (298 K, 101.3 kPa) was 0.883 ± 0.009 mPa·s, the viscosity (298.15 K, 100 kPa) was 0.8956 ± 0.11 mPa·s and 0.8961 ± 0.01 mPa·s and the viscosity (298.15 K, 101.3 kPa) was 0.905 ± 0.007 mPa·s and 0.8862 ± 0.024 mPa·s. For the same compound, the viscosity (303 K, 101.33 kPa) was 0.8141 ± 0.019 mPa·s, the viscosity (303.15 K, 100 kPa) was 0.82 ± 0.07 mPa·s and the viscosity (303.15 K, 101.32 kPa) was 0.826 ± 0.004 mPa·s. For the same compound, the viscosity (303.75 K, 101.33 kPa) was 0.8403 ± 0.01 mPa·s, the viscosity (307.35 K, 101.33 kPa) was 0.76 ± 0.011 mPa·s and the viscosity (307.4 K, 101.33 kPa) was 0.309 ± 0.003 mPa·s. The viscosity (308 K, 101 kPa) was 0.86 ± 0.02 mPa·s, the viscosity (308.15 K, 100 kPa) was 0.7316 ± 0.088 mPa·s and the viscosity (308.15 K, 101.3 kPa) was 0.7483 ± 0.021 mPa·s and 0.7592 ± 0.013 mPa·s. For the same compound, the viscosity (312.75 K, 101.33 kPa) was 0.7277 ± 0.0086 mPa·s, the viscosity (313 K, 101.33 kPa) was 0.7045 ± 0.017 mPa·s and the viscosity (313.15 K, 100 kPa) was 0.7 ± 0.06 mPa·s. The viscosity (313.15 K, 101 kPa) was 0.687 ± 0.014 mPa·s and 0.6934 ± 0.018 mPa·s, the viscosity (313.15 K, 101.3 kPa) was 0.7003 ± 0.0064 mPa·s and 0.6886 ± 0.019 mPa·s and the viscosity (313.15 K, 101.33 kPa) was 0.682 ± 0.018 mPa·s and 0.6995 ± 0.0069 mPa·s. The viscosity (318 K, 101.3 kPa) was 0.6338 ± 0.024 mPa·s and 0.6445 ± 0.024 mPa·s, the viscosity (318 K, 101.33 kPa) was 0.6338 ± 0.039 mPa·s and the viscosity (318.15 K, 101 kPa) was 0.649 ± 0.007 mPa·s and 0.648 ± 0.014 mPa·s and 0.655 ± 0.007 mPa·s. The viscosity (321.15 K, 101.32 kPa) was 0.5964 ± 0.011 mPa·s, the viscosity (322.15 K, 101.32 kPa) was 0.5901 ± 0.011 mPa·s and the viscosity (323 K, 101 kPa) was 0.6023 ± 0.0043 mPa·s and 0.6009 ± 0.0039 mPa·s. The viscosity (323 K, 101.33 kPa) was 0.6126 ± 0.015 mPa·s, the viscosity (323.15 K, 100 kPa) was 0.6074 ± 0.0069 mPa·s and 0.6 ± 0.05 mPa·s and 0.6077 ± 0.017 mPa·s and the viscosity (323.15 K, 101 kPa) was 0.607 ± 0.012 mPa·s. The viscosity (323.15 K, 101.32 kPa) was 0.5842 ± 0.011 mPa·s.

In the case of `CC(=O)OC(C)C(C)C` (stereo unspecified), the viscosity (298.15 K, 101.33 kPa) is reported as 0.795 ± 0.021 mPa·s, the viscosity (303.15 K, 101.33 kPa) is reported as 0.74 ± 0.019 mPa·s and the viscosity (308.15 K, 101.33 kPa) is reported as 0.69 ± 0.018 mPa·s.

Compound `CC(CC(C)(C)C)CP(=O)([O-])CC(C)CC(C)(C)C.CCCC[P+](C)(CCCC)CCCC` (stereo unspecified) has a viscosity (323.15 K, 101 kPa) of 283 ± 13 mPa·s.

For `CCC(C)=O`, the viscosity (293.15 K, 100 kPa) was 0.4 ± 0.04 mPa·s and 0.4152 ± 0.0064 mPa·s, the viscosity (298 K, 101.3 kPa) was 0.475 ± 0.095 mPa·s and the viscosity (298 K, 101.33 kPa) was 0.3774 ± 0.0053 mPa·s. For the same compound, the viscosity (298.15 K, 100 kPa) was 0.3992 ± 0.0062 mPa·s, the viscosity (298.15 K, 101.3 kPa) was 0.407 ± 0.011 mPa·s and the viscosity (298.15 K, 101.33 kPa) was 0.384 ± 0.0043 mPa·s and 0.46 ± 0.005 mPa·s and 0.39 ± 0.0027 mPa·s. It also gave a viscosity (299.15 K, 101.3 kPa) of 0.401 ± 0.011 mPa·s, a viscosity (303.15 K, 101.3 kPa) of 0.364 ± 0.003 mPa·s and a viscosity (303.15 K, 101.33 kPa) of 0.366 ± 0.01 mPa·s. The viscosity (307.35 K, 101.33 kPa) was 0.35 ± 0.008 mPa·s, the viscosity (308.15 K, 100 kPa) was 0.344 ± 0.014 mPa·s and 0.3666 ± 0.0059 mPa·s and the viscosity (308.15 K, 101.33 kPa) was 0.342 ± 0.003 mPa·s and 0.422 ± 0.004 mPa·s. For the same compound, the viscosity (313.15 K, 101.3 kPa) was 0.356 ± 0.0076 mPa·s, the viscosity (318 K, 101.3 kPa) was 0.3429 ± 0.015 mPa·s and the viscosity (318 K, 101.33 kPa) was 0.3417 ± 0.039 mPa·s. For the same compound, the viscosity (318.15 K, 101 kPa) was 0.3194 ± 0.0052 mPa·s and 0.3213 ± 0.0087 mPa·s and 0.322 ± 0.009 mPa·s, the viscosity (318.15 K, 101.3 kPa) was 0.343 ± 0.009 mPa·s and the viscosity (318.15 K, 101.33 kPa) was 0.311 ± 0.003 mPa·s and 0.397 ± 0.004 mPa·s. The viscosity (323.15 K, 100 kPa) was 0.31 ± 0.03 mPa·s and 0.304 ± 0.004 mPa·s and the viscosity (323.15 K, 101.3 kPa) was 0.3327 ± 0.0071 mPa·s.

Work on `CCCCCCCC(=O)OCC` yielded a viscosity (293.15 K, 100 kPa) of 1.549 ± 0.048 mPa·s, a viscosity (303.15 K, 100 kPa) of 1.295 ± 0.04 mPa·s and a viscosity (313.15 K, 100 kPa) of 1.095 ± 0.034 mPa·s. It also gave a viscosity (323.15 K, 100 kPa) of 0.949 ± 0.03 mPa·s.

For `CCCCCCOC(C)=O`, the viscosity (293.15 K, 101.33 kPa) was 1.078 ± 0.021 mPa·s, the viscosity (303.15 K, 101.33 kPa) was 0.782 ± 0.018 mPa·s and the viscosity (313.15 K, 101.33 kPa) was 0.672 ± 0.017 mPa·s.

`CCCCOCC(C)O` (stereo unspecified) gave a viscosity (298.15 K, 101.33 kPa) of 2.855 ± 0.042 mPa·s, a viscosity (308.15 K, 101.33 kPa) of 2.142 ± 0.032 mPa·s and a viscosity (318.15 K, 101.33 kPa) of 1.655 ± 0.025 mPa·s.

`CCCC[N+]1(C)CCCC1.FC(F)(F)C(F)(F)[P-](F)(F)(F)(C(F)(F)C(F)(F)F)C(F)(F)C(F)(F)F` gave a viscosity (298.15 K, 101 kPa) of 283.4 ± 19 mPa·s, a viscosity (303.15 K, 101 kPa) of 214 ± 13 mPa·s and a viscosity (308.15 K, 101 kPa) of 166.2 ± 9.3 mPa·s. The viscosity (313.15 K, 101 kPa) was 122.1 ± 6.1 mPa·s, the viscosity (318.15 K, 101 kPa) was 100.3 ± 4.6 mPa·s and the viscosity (323.15 K, 101 kPa) was 80.1 ± 3.5 mPa·s.

Work on `CCOC(=O)C(C)Br` (stereo unspecified) yielded a viscosity (303.15 K, 101 kPa) of 1.493 ± 0.0094 mPa·s.

In the case of `CC[n+]1ccn(C)c1.O=C([O-])C(F)(F)F`, the viscosity (293.15 K, 101 kPa) is reported as 39.5 ± 0.9 mPa·s, the viscosity (298.15 K, 101 kPa) is reported as 32.9 ± 0.7 mPa·s and the viscosity (303.15 K, 101 kPa) is reported as 27.5 ± 0.6 mPa·s. For the same compound, the viscosity (313.15 K, 101 kPa) was 19.9 ± 0.5 mPa·s.

Work on `CN(C)N` yielded a viscosity (293.15 K, 101.3 kPa) of 0.55 ± 0.02 mPa·s.

For `COC(C)=O`, the viscosity (293.15 K, 101 kPa) was 0.411 ± 0.011 mPa·s, the viscosity (303.15 K, 101.3 kPa) was 0.3448 ± 0.0047 mPa·s and 0.3442 ± 0.0032 mPa·s and 0.3448 ± 0.0027 mPa·s and the viscosity (313.15 K, 101 kPa) was 0.321 ± 0.007 mPa·s and 0.3524 ± 0.0059 mPa·s and 0.331 ± 0.02 mPa·s. For the same compound, the viscosity (313.15 K, 101.33 kPa) was 0.331 ± 0.005 mPa·s and the viscosity (318.15 K, 101 kPa) was 0.299 ± 0.006 mPa·s and 0.313 ± 0.0085 mPa·s.

For `COCCOC`, the viscosity (298 K, 101.3 kPa) was 0.432 ± 0.004 mPa·s, the viscosity (298.15 K, 101 kPa) was 0.45 ± 0.048 mPa·s and the viscosity (298.15 K, 101.33 kPa) was 0.4236 ± 0.025 mPa·s. The viscosity (301.15 K, 100 kPa) was 0.6 ± 0.1 mPa·s and 0.7 ± 0.1 mPa·s, the viscosity (308.15 K, 101 kPa) was 0.445 ± 0.048 mPa·s and 0.3812 ± 0.0042 mPa·s and the viscosity (308.15 K, 101.33 kPa) was 0.3847 ± 0.023 mPa·s. The viscosity (313.15 K, 101 kPa) was 0.3628 ± 0.004 mPa·s, the viscosity (318.15 K, 101 kPa) was 0.3444 ± 0.0039 mPa·s and the viscosity (318.15 K, 101.33 kPa) was 0.3496 ± 0.021 mPa·s. The viscosity (323.15 K, 101 kPa) was 0.3284 ± 0.0037 mPa·s.

For `COc1ccccc1N`, the viscosity (298.15 K, 100 kPa) was 5.374 ± 0.11 mPa·s, the viscosity (303.15 K, 101 kPa) was 4.924 ± 0.089 mPa·s and 4.922 ± 0.11 mPa·s and 4.922 ± 0.21 mPa·s and the viscosity (308.15 K, 101 kPa) was 4.512 ± 0.1 mPa·s and 4.512 ± 0.2 mPa·s. The viscosity (313.15 K, 101 kPa) was 4.185 ± 0.093 mPa·s and 4.185 ± 0.18 mPa·s and the viscosity (318.15 K, 101 kPa) was 3.883 ± 0.087 mPa·s and 3.883 ± 0.17 mPa·s.

Work on `C[N+](C)(CCCS(=O)(=O)O)C1CCCCC1.Cc1ccc(S(=O)(=O)[O-])cc1` yielded a viscosity (303.15 K, 101 kPa) of 113700 mPa·s, a viscosity (308.15 K, 101 kPa) of 56930 mPa·s and a viscosity (313.15 K, 101 kPa) of 32650 mPa·s. It also gave a viscosity (318.15 K, 101 kPa) of 17830 mPa·s and a viscosity (323.15 K, 101 kPa) of 10190 mPa·s.

Work on `Cc1ccc(C)c(C)c1` yielded a viscosity (293.15 K, 102 kPa) of 0.84 ± 0.022 mPa·s, a viscosity (303.15 K, 102 kPa) of 0.731 ± 0.021 mPa·s and a viscosity (313.15 K, 102 kPa) of 0.64 ± 0.021 mPa·s. For the same compound, the viscosity (323.15 K, 102 kPa) was 0.567 ± 0.021 mPa·s.
